# Patent US10914725B2, “Culture medium additive, culture medium composition, and method for culturing cells or tissue using same” (NISSAN CHEMICAL INDUSTRIES, LTD., priority 2015, dated 2021)
# Key:
# [1] = system: adenocarcinomic human alveolar basal epithelial cell line A549; assay: CellTiter-Glo cell survival assay of anticancer agents (Experimental Example 8); assay type: cell-based; conditions: for IC50: Homo sapiens, A549, cell survival assay by luminescence, read-out: 50% inhibitory concentration
# Protocol: Adenocarcinomic human alveolar basal epithelial cell line A549 (manufactured by DS PHARMA BIOMEDICAL CO., LTD.) was suspended in the above-mentioned medium composition containing low-molecular agar at 11,000 cells/mL. The above-mentioned cell suspension was dispensed to the wells of a 96 well flat bottom ultra-low attachment surface microplate (manufactured by Corning Incorporated, #3474) at 90 μL per 1 well. The plate was stood in a CO2 incubator (37° C., 5% CO2) overnight. […] Successively, the plate was further cultured in a standing state in a CO2 incubator (37° C., 5% CO2) for 7 days. As a negative control, a medium composition containing 10 (v/v) % FBS alone in DMEM (manufactured by Wako Pure Chemical Industries, Ltd.) was prepared. […] A549 cells were also suspended in each of the negative control and comparison control medium compositions, the negative control was dispensed to a 96 well flat bottom attachment surface microplate (manufactured by Corning Incorporated, #3585) and the comparison control was dispensed to a 96 well flat bottom ultra-low attachment surface microplate (manufactured by Corning Incorporated, #3474). […] CellTiter-Glo Luminescent Cell Viability Assay (manufactured by Promega) (100 μL) was added to the low-molecular agar-containing culture medium and each cell culture medium of the negative control and comparison control, the mixture was stood for 10 min at room temperature, and the amount of luminescence was measured by a microplate reader (“FlexStation 3”, manufactured by Molecular Devices) and according to the protocol recommended by Promega. The amount of luminescence of the medium alone was subtracted, whereby the number of viable cells was measured.
# [2] = system: adenocarcinomic human alveolar basal epithelial cell line A549; assay: High content analysis of anticancer agents by cell image analysis (Experimental Example 8); assay type: cell-based; conditions: for IC50: Homo sapiens; for average cell number per sphere / average dead cell number in sphere / average sphere number per 20 mm^2 / projected area: 0.03 (w/v)% low-molecular agar medium, 7 days with agent;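 on projected area: Projected area in square micrometres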
# Protocol: Adenocarcinomic human alveolar basal epithelial cell line A549 (manufactured by DS PHARMA BIOMEDICAL CO., LTD.) was suspended in the above-mentioned medium composition containing low-molecular agar at 11,000 cells/mL. […] The plate was stood in a CO2 incubator (37° C., 5% CO2) overnight. The next day, paclitaxel (manufactured by Wako Pure Chemical Industries, Ltd.) and trametinib (manufactured by SANTA CRUZ) were further added by 10 μl per 1 well at a final concentration of 0.001 μM, 0.01 μM and 0.1 μM, respectively, mitomycin C (manufactured by Wako Pure Chemical Industries, Ltd.) at a final concentration of 0.005 μM, 0.05 μM and 0.5 μM, and MK2206 (manufactured by SANTA CRUZ) at a final concentration of 0.001 μM, 0.01 μM, 0.1 μM and 1 μM. Successively, the plate was further cultured in a standing state in a CO2 incubator (37° C., 5% CO2) for 7 days.
# Successively, a solution of 20 μg/mL Propidium Iodide (manufactured by BIOMOL) in DMEM (phenol red, L-glutamine free) (manufactured by Wako Pure Chemical Industries, Ltd.) was prepared and added at 10 μL per 1 well, and the culture medium was suspended. The plate was centrifuged at 1,500 rpm for 1 min, and high content analysis was performed by cell image analysis using a cell imaging apparatus (“ArrayScan VTI HCS Reader”, manufactured by Thermo Fisher Scientific). At that time, observation was performed with 20 fields of view per well using a ×10 objective lens, cell outline and cell nucleus were detected from Hoechst33342 fluorescence image, and dead cells were detected from propidium iodide fluorescence image. In addition, 50% inhibitory concentration (nM) of each anticancer agent by high content analysis was calculated from the number of spheres constituted of not less than 5 cells. In this case, the value without addition of the anticancer agent was taken as 0% sphere formation inhibitory rate.
# [3] = comparison control (0.015 (w/v)% deacylated gellan gum medium)
# [4] = low-molecular agar-containing medium
# [5] = negative control (DMEM, 10% FBS, attachment surface plate)
# [6] = agent 0.001 μM, comparison control (0.015 (w/v)% deacylated gellan gum medium)
# [7] = agent 0.001 μM, low-molecular agar-containing medium
# [8] = agent 0.001 μM, negative control (DMEM, 10% FBS, attachment surface plate)
# [9] = agent 0.01 μM, comparison control (0.015 (w/v)% deacylated gellan gum medium)
# [10] = agent 0.01 μM, low-molecular agar-containing medium
# [11] = agent 0.01 μM, negative control (DMEM, 10% FBS, attachment surface plate)
# [12] = agent 0.1 μM, comparison control (0.015 (w/v)% deacylated gellan gum medium)
# [13] = agent 0.1 μM, low-molecular agar-containing medium
# [14] = agent 0.1 μM, negative control (DMEM, 10% FBS, attachment surface plate)
# [15] = A549, high content analysis by cell image analysis, number of spheres of not less than 5 cells, low-molecular agar-containing medium, read-out: 50% inhibitory concentration
compound,measurement,setting,value
NC1(c2ccc(-c3nc4ccn5c(=O)[nH]nc5c4cc3-c3ccccc3)cc2)CCC1 [MK2206],IC50,[1]; [3],210 nM
same,IC50,[1]; [4],250 nM
same,IC50,[1]; [5],≥ 1000 nM
same,relative cell number (no anticancer agent = 100),[1]; [6],95.8
same,relative cell number (no anticancer agent = 100),[1]; [7],100.1
same,relative cell number (no anticancer agent = 100),[1]; [8],100.2
same,relative cell number (no anticancer agent = 100),[1]; [9],89.1
same,relative cell number (no anticancer agent = 100),[1]; [10],93.9
same,relative cell number (no anticancer agent = 100),[1]; [11],101.3
same,relative cell number (no anticancer agent = 100),[1]; [12],61.8
same,relative cell number (no anticancer agent = 100),[1]; [13],66.5
same,relative cell number (no anticancer agent = 100),[1]; [14],97.6
same,relative cell number (no anticancer agent = 100),"[1]; agent 1 μM, comparison control (0.015 (w/v)% deacylated gellan gum medium)",25.2
same,relative cell number (no anticancer agent = 100),"[1]; agent 1 μM, low-molecular agar-containing medium",25.7
same,relative cell number (no anticancer agent = 100),"[1]; agent 1 μM, negative control (DMEM, 10% FBS, attachment surface plate)",95.7
same,IC50,[2]; [15],210 nM
same,average cell number per sphere,[2]; agent 0.001 μM,5.044
same,average dead cell number in sphere,[2]; agent 0.001 μM,0.104
same,average sphere number per 20 mm^2,[2]; agent 0.001 μM,230.6
same,projected area,[2]; agent 0.001 μM,1361 μm^2
same,average cell number per sphere,[2]; agent 0.01 μM,4.774
same,average dead cell number in sphere,[2]; agent 0.01 μM,0.074
same,average sphere number per 20 mm^2,[2]; agent 0.01 μM,213.7
same,projected area,[2]; agent 0.01 μM,1343 μm^2
same,average cell number per sphere,[2]; agent 0.1 μM,4.323
same,average dead cell number in sphere,[2]; agent 0.1 μM,0.076
same,average sphere number per 20 mm^2,[2]; agent 0.1 μM,206.1
same,projected area,[2]; agent 0.1 μM,1199 μm^2
same,average cell number per sphere,[2]; agent 1 μM,3.423
same,average dead cell number in sphere,[2]; agent 1 μM,0.332
same,average sphere number per 20 mm^2,[2]; agent 1 μM,142.3
same,projected area,[2]; agent 1 μM,931.2 μm^2
CO[C@@]12[C@H](COC(N)=O)C3=C(C(=O)C(C)=C(N)C3=O)N1C[C@@H]1N[C@@H]12 [mitomycin C],IC50,[1]; [3],12.1 nM
same,IC50,[1]; [4],10 nM
same,IC50,[1]; [5],71.4 nM
same,relative cell number (no anticancer agent = 100),"[1]; agent 0.005 μM, comparison control (0.015 (w/v)% deacylated gellan gum medium)",62.8
same,relative cell number (no anticancer agent = 100),"[1]; agent 0.005 μM, low-molecular agar-containing medium",59.5
same,relative cell number (no anticancer agent = 100),"[1]; agent 0.005 μM, negative control (DMEM, 10% FBS, attachment surface plate)",94
same,relative cell number (no anticancer agent = 100),"[1]; agent 0.05 μM, comparison control (0.015 (w/v)% deacylated gellan gum medium)",29.5
same,relative cell number (no anticancer agent = 100),"[1]; agent 0.05 μM, low-molecular agar-containing medium",27.8
same,relative cell number (no anticancer agent = 100),"[1]; agent 0.05 μM, negative control (DMEM, 10% FBS, attachment surface plate)",55.9
same,relative cell number (no anticancer agent = 100),"[1]; agent 0.5 μM, comparison control (0.015 (w/v)% deacylated gellan gum medium)",8.6
same,relative cell number (no anticancer agent = 100),"[1]; agent 0.5 μM, low-molecular agar-containing medium",8.1
same,relative cell number (no anticancer agent = 100),"[1]; agent 0.5 μM, negative control (DMEM, 10% FBS, attachment surface plate)",12.3
same,IC50,"[2]; A549, read-out: 50% inhibitory concentration",6.4 nM
same,average cell number per sphere,[2]; agent 0.005 μM,3.72
same,average dead cell number in sphere,[2]; agent 0.005 μM,0.151
same,average sphere number per 20 mm^2,[2]; agent 0.005 μM,265.2
same,projected area,[2]; agent 0.005 μM,1139 μm^2
same,average cell number per sphere,[2]; agent 0.05 μM,2.187
same,average dead cell number in sphere,[2]; agent 0.05 μM,0.33
same,average sphere number per 20 mm^2,[2]; agent 0.05 μM,190.6
same,projected area,[2]; agent 0.05 μM,810.7 μm^2
same,average cell number per sphere,[2]; agent 0.5 μM,1.447
same,average dead cell number in sphere,[2]; agent 0.5 μM,0.606
same,average sphere number per 20 mm^2,[2]; agent 0.5 μM,113.3
same,projected area,[2]; agent 0.5 μM,460.8 μm^2
CC(=O)Nc1cccc(-n2c(=O)n(C3CC3)c(=O)c3c(Nc4ccc(I)cc4F)n(C)c(=O)c(C)c32)c1 [trametinib],IC50,[1]; [3],11.5 nM
same,IC50,[1]; [4],8.1 nM
same,IC50,[1]; [5],62.5 nM
same,relative cell number (no anticancer agent = 100),[1]; [6],93.3
same,relative cell number (no anticancer agent = 100),[1]; [7],92.2
same,relative cell number (no anticancer agent = 100),[1]; [8],101.2
same,relative cell number (no anticancer agent = 100),[1]; [9],52.5
same,relative cell number (no anticancer agent = 100),[1]; [10],45.8
same,relative cell number (no anticancer agent = 100),[1]; [11],99
same,relative cell number (no anticancer agent = 100),[1]; [12],18.1
same,relative cell number (no anticancer agent = 100),[1]; [13],18.2
same,relative cell number (no anticancer agent = 100),[1]; [14],37.4
same,IC50,[2]; [15],5.1 nM
same,average cell number per sphere,[2]; agent 0.001 μM,4.272
same,average dead cell number in sphere,[2]; agent 0.001 μM,0.073
same,average sphere number per 20 mm^2,[2]; agent 0.001 μM,218.7
same,projected area,[2]; agent 0.001 μM,1200 μm^2
same,average cell number per sphere,[2]; agent 0.01 μM,2.906
same,average dead cell number in sphere,[2]; agent 0.01 μM,0.09
same,average sphere number per 20 mm^2,[2]; agent 0.01 μM,173.9
same,projected area,[2]; agent 0.01 μM,976.6 μm^2
same,average cell number per sphere,[2]; agent 0.1 μM,1.867
same,average dead cell number in sphere,[2]; agent 0.1 μM,0.178
same,average sphere number per 20 mm^2,[2]; agent 0.1 μM,132.8
same,projected area,[2]; agent 0.1 μM,618.3 μm^2
